In publication PMC9623576, “Semisynthesis and Evaluation of Anti-Inflammatory Activity of the Cassane-Type Diterpenoid Taepeenin F and of Some Synthetic Intermediates” (Journal of Natural Products, 2022):
Several values for one entry are separate records, joined by “and”; a condition that tells them apart may be missing. Equal entries are not always repeated.

How the values were obtained:
[1] = test system: NO production in LPS-activated RAW 264.7 macrophage murine cells; test: Inhibition of NO (nitrite) release, Griess reaction; assay type: cell-based
Procedure: The concentrations of nitrites were determined by the Griess reaction.
A stock solution was frozen and stored at […]. Before the experiments, this solution was diluted in cell-culture medium to the adequate concentrations for each experiment. […] For nitrite assay, subcytotoxic concentrations (3/4IC50, 1/2IC50, and 1/4IC50), were used to ensure that the NO inhibitory potential was not due to a possible cytotoxic effect. The concentrations of 3/4IC50, 1/2IC50, and 1/4IC50 were used for the cell-cycle analysis. All experiments were measured and compared with control (untreated cells after 24, 48, or 72 h of treatment.)
Nitrites production was analyzed through the Griess reaction. This nitrite concentration was used as an indicator of NO production.[35] Briefly, RAW 264.7 cells were plated at 6 × 10^3 cells/well in 24-well cell culture plates and supplemented with 10 μg/mL of lipopolysaccharide (LPS). […] The supernatants were collected at 48 and 72 h, to determine their nitrite concentrations and/or stored at −80 °C for further use.
The Griess reaction was performed taking 150 μL of supernatant test samples or sodium nitrite standard (0–120 μM) and mixed with 25 μL of Griess reagent A (0.1% N,N-(1-naphthyl) ethylenediaminedihydrochloride) and 25 μL of Griess reagent B (1% sulfanilamide in 5% of phosphoric acid), in a 96-well plate. After 15 min of incubation at room temperature, the absorbance was measured at 540 nm in an ELISA plate reader (Tecan Sunrise MR20–301, TECAN, Austria). The absorbance was referred to a nitrite standard curve to determine the concentration of nitrite in the supernatant of each experimental sample. The percentage of NO production was determined, assigning 100% at the increase between negative control (untreated cells) and positive control (cells only treated with 10 μg/mL of LPS).

[2] = test system: B16-F10 cells; test: Annexin V-FITC/propidium iodide apoptosis flow cytometry; assay type: cell-based, murine; conditions: for apoptotic effect: B16-F10, after 24 h of treatment
Source text: Cytometric FACS analysis using annexin V-FITC and PI staining was used to differentiate four cell populations (Figure 5): normal cells (annexin V^– and PI^–), early apoptotic cells (annexin V^+ and PI^–), late apoptotic cells (annexin V^+ and PI^+), and necrotic cells (annexin V^– and PI^+).[33]
To confirm the proapoptotic effect of compounds 16 and 22, annexin V and PI double staining was detected with flow cytometry. An early indicator of apoptosis is the translocation of the membrane phospholipid phosphatidylserine from the cytoplasmic interface to the external surface of the plasmatic membrane. The phospholipid phosphatidylserine that accumulates on the external plasmatic membrane can be detected by annexin V/PI is a fluorescent dye that binds to the nuclei of dead cells. Apoptosis was assessed by flow cytometry using a FACScan (fluorescence-activated cell sorter) flow cytometer (Coulter Corporation, Hialeah, FL, USA).[37],[38] For this assay, 5 × 10^4 B16-F10 cells were plated in 24-well plates with 1.5 mL of medium and incubated for 24 h. […] Cells were collected and resuspended in a binding buffer (10 mM HEPES/NaOH, pH 7.4, 140 mM NaCl, 2.5 mM CaCl2). Annexin V-FITC conjugate (1 μg/mL) was then added and incubated for 15 min at room temperature in darkness. Just before the analysis by flow cytometry, cells were stained with 5 μL of 1 mg/mL PI solution. In each experiment, approximately 10 × 10^3 cells were analyzed, and the experiment was duplicated twice.

[3] = B16-F10, 48 h, IC50 concentration
[4] = B16-F10, 48 h, IC80 concentration
[5] = B16-F10, 72 h, IC50 concentration
[6] = B16-F10, 72 h, IC80 concentration

## COC(=O)[C@]1(C)CCC[C@@]2(C)[C@H]1CC=C1C(C)=C(C(C)C)C(=O)C[C@@H]12 [Compound 16, (1R,4aR,10aR)-Methyl 7-isopropyl-1,4a,8-trimethyl-6-oxo-1,2,3,4,4a,4b,5,6,10,10a-decahydrophenanthrene-1-carboxylate]
[1]; 48 h, 1/2IC50 concentration
  inhibition of NO release: 59.95%
[1]; 48 h, 3/4IC50 concentration
  inhibition of NO release: 85.13%
[1]; 72 h, 3/4IC50 concentration
  inhibition of NO release: 80%
[2]; [3]
  early apoptosis (Q4, annexin V+ PI-): 3.73%
  late apoptosis (Q2, annexin V+ PI+): 9.40%
  total apoptosis: 13.13%
[2]; [4]
  early apoptosis (Q4, annexin V+ PI-): 12.06%
  late apoptosis (Q2, annexin V+ PI+): 14.53%
  total apoptosis: 26.6%
[2]; [5]
  early apoptosis (Q4, annexin V+ PI-): 0.06%
  late apoptosis (Q2, annexin V+ PI+): 7.63%
  total apoptosis: 7.7%
[2]; [6]
  early apoptosis (Q4, annexin V+ PI-): 27.63%
  late apoptosis (Q2, annexin V+ PI+): 21.13%
  total apoptosis: 48.76%
[2]
  apoptotic effect: did not exert a significant effect

## COC(=O)[C@]1(C)CCC[C@]2(C)c3cc(O)c(C=O)c(C)c3CC[C@@H]12 [Compound 21, (1R,4aS,10aR)-Methyl 7-formyl-6-hydroxy-1,4a,8-trimethyl-1,2,3,4,4a,9,10,10a-octahydrophenanthrene-1-carboxylate]
[1]; 48 h, 3/4IC50 concentration
  inhibition of NO release: 76.49% and 76%
[1]; 72 h, 3/4IC50 concentration
  inhibition of NO release: 91%
[2]; [3]
  early apoptosis (Q4, annexin V+ PI-): 6.93%
  late apoptosis (Q2, annexin V+ PI+): 18.30%
  total apoptosis: 25.23%
[2]; [4]
  early apoptosis (Q4, annexin V+ PI-): 5.73%
  late apoptosis (Q2, annexin V+ PI+): 27.13%
  total apoptosis: 32.86%
[2]; [5]
  early apoptosis (Q4, annexin V+ PI-): 5.33%
  late apoptosis (Q2, annexin V+ PI+): 17.03%
  total apoptosis: 22.36%
[2]; [6]
  early apoptosis (Q4, annexin V+ PI-): 23.56%
  late apoptosis (Q2, annexin V+ PI+): 17.66%
  total apoptosis: 41.23%
[2]
  apoptotic effect: did not exert a significant effect
